According to ChEMBL document CHEMBL4346695, “Thiophenol-formaldehyde triazole causes apoptosis induction in ovary cancer cells and prevents tumor growth formation in mice model” (2019):
The source made the active and inactive calls.

Key:
Caov-3 cell line = experiment: Growth inhibition of human Caov3 cells incubated for 48 hrs by MTT assay; assay type: functional, cell-based
Homo sapiens = species: Homo sapiens; experiment: Growth inhibition of human ES2 cells incubated for 48 hrs by MTT assay; assay type: functional
Caov-4 = experiment: Growth inhibition of human Caov4 cells incubated for 48 hrs by MTT assay; assay type: functional, cell-based

Measured: growth inhibition (GI)

Fc1ccc(-n2cc(COCc3ccccc3S)nn2)c(F)c1
active: Caov-3 cell line | Homo sapiens | Caov-4

FC(F)(F)c1ccc(-n2cc(COCc3ccccc3S)nn2)cc1
active: Caov-3 cell line | Homo sapiens | Caov-4
